Where a name gives a salt, the structure may show the parent alone.
Each compound was assayed on MRSA (assay: Biofilm inhibition at 100 μM, MRSA). Settings: Staphylococcus aureus, biofilm inhibition, 100 μM, read-out: MRSA % Inhibition.
Format: cell-based
Description: Procedure to Determine the Inhibitory Effect of Test Compounds on E. faecium, MRSA, S. epidermidis, PAO1, PA14, E. Coli and MDRAB Biofilm Formation: Inhibition assays were performed by taking an overnight culture of bacterial strain and subculturing it at an OD600 of 0.01 into the necessary media (brain heart infusion for E. faecium, tryptic soy broth with a 0.5% glucose supplement (TSBG) for MRSA, Luria-Bertani (LB) media for MDRAB, Luria-Bertani media without NaCl (LBNS) for PAO1 and PA14, Luria-Bertani (LB) media for E. coli and tryptic soy broth with a 0.5% glucose supplement and a 3.0% NaCl supplement (TGN) for S. epidermidis. Stock solutions of predetermined concentrations of the test compound were then made in the necessary media. These stock solutions were aliquoted (100 μL) into the wells of the 96-well PVC microtiter plate. Sample plates were then wrapped in GLAD Press n′ Seal® followed by an incubation under stationary conditions for 24 h at 37° C. After incubation, the media was discarded from the wells and the plates were washed thoroughly with water. Plates were then stained with 100 μL of 0.1% solution of crystal violet (CV) and then incubated at ambient temperature for 30 min. Plates were washed with water again and the remaining stain was solubilized with 200 μL of 95% ethanol. A sample of 125 μL of solubilized CV stain from each well was transferred to the corresponding wells of a polystyrene microtiter dish. Biofilm inhibition was quantitated by measuring the OD540 of each well in which a negative control lane wherein no biofilm was formed served as a background and was subtracted out.
Biofilm inhibition has been tested for the following compounds, each of which was tested at a concentration of 100 μM.

With `Nc1nc(CCCc2cn(CC(=O)N3CCCC3)nn2)c[nH]1` [2-{4-[3-(2-amino-1H-imidazol-4-yl)-propyl]-[1,2,3]triazol-1-yl}-1-pyrrolidin-1-yl-ethanone hydrochloride] as the compound, how does the inhibition at 100 µM read?
Its inhibition at 100 µM is 35.4 ± 5%.

Which inhibition at 100 µM does the source give for `Nc1nc(CCCc2cn(CC(=O)NCCCc3ccccc3)nn2)c[nH]1` [2-{4-[3-(2-amino-1H-imidazol-4-yl)-propyl]-[1,2,3]triazol-1-yl}-N-(3-phenyl-propyl)-acetamide hydrochloride] here?
Its inhibition at 100 µM is 64.8 ± 2%.

For `COc1ccc(CNC(=O)Cn2cc(CCCc3c[nH]c(N)n3)nn2)cc1` [2-{4-[3-(2-amino-1H-imidazol-4-yl)-propyl]-[1,2,3]triazol-1-yl}-N-(4-methoxy-benzyl)-acetamide hydrochloride], which inhibition at 100 µM is on record?
The inhibition at 100 µM was 71 ± 3%.

How did the inhibition at 100 µM turn out when `COc1ccc(NC(=O)Cn2cc(CCCc3c[nH]c(N)n3)nn2)cc1` [2-{4-[3-(2-amino-1H-imidazol-4-yl)-propyl]-[1,2,3]triazol-1-yl}-N-(4-methoxy-phenyl)-acetamide hydrochloride] was run?
Its inhibition at 100 µM is 41.1 ± 2%.

For `COc1ccc(CCNC(=O)Cn2cc(CCCc3c[nH]c(N)n3)nn2)cc1` [2-{4-[3-(2-amino-1H-imidazol-4-yl)-propyl]-[1,2,3]triazol-1-yl}-N-[2-(4-methoxy-phenyl)-ethyl]-acetamide hydrochloride], which inhibition at 100 µM is on record?
Its inhibition at 100 µM is 18.3 ± 5%.

For `Nc1nc(CCCc2cn(CC(=O)NCc3ccccc3)nn2)c[nH]1` [2-{4-[3-(2-amino-1H-imidazol-4-yl)-propyl]-[1,2,3]triazol-1-yl}-N-benzyl-acetamide hydrochloride], which inhibition at 100 µM is on record?
The inhibition at 100 µM was 58.1 ± 2%.

How did the inhibition at 100 µM turn out when `Nc1nc(CCCc2cn(CC(=O)NC3CCCCC3)nn2)c[nH]1` [2-{4-[3-(2-amino-1H-imidazol-4-yl)-propyl]-[1,2,3]triazol-1-yl}-N-cyclohexyl-acetamide hydrochloride] was run?
Its inhibition at 100 µM is 40.5 ± 4%.

Which inhibition at 100 µM does the source give for `Nc1nc(CCCc2cn(CC(=O)NC3CCCC3)nn2)c[nH]1` [2-{4-[3-(2-amino-1H-imidazol-4-yl)-propyl]-[1,2,3]triazol-1-yl}-N-cyclopentyl-acetamide hydrochloride] here?
Its inhibition at 100 µM is 64 ± 4%.

For `CCCCCCNC(=O)Cn1cc(CCCc2c[nH]c(N)n2)nn1` [2-{4-[3-(2-amino-1H-imidazol-4-yl)-propyl]-[1,2,3]triazol-1-yl}-N-hexyl-acetamide hydrochloride], which inhibition at 100 µM is on record?
Its inhibition at 100 µM is 83.1 ± 16%.

`CC(C)NC(=O)Cn1cc(CCCc2c[nH]c(N)n2)nn1` [2-{4-[3-(2-amino-1H-imidazol-4-yl)-propyl]-[1,2,3]triazol-1-yl}-N-isopropyl-acetamide hydrochloride] was tested. Which inhibition at 100 µM did it give?
The inhibition at 100 µM was 36.4 ± 3%.

Which inhibition at 100 µM does the source give for `Nc1nc(CCCc2cn(CC(=O)Nc3ccccc3)nn2)c[nH]1` [2-{4-[3-(2-amino-1H-imidazol-4-yl)-propyl]-[1,2,3]triazol-1-yl}-N-phenyl-acetamide hydrochloride] here?
The inhibition at 100 µM was 41.9 ± 2%.

With `CC(C)(C)NC(=O)Cn1cc(CCCc2c[nH]c(N)n2)nn1` [2-{4-[3-(2-amino-1H-imidazol-4-yl)-propyl]-[1,2,3]triazol-1-yl}-N-tert-butyl-acetamide hydrochloride] as the compound, how does the inhibition at 100 µM read?
The inhibition at 100 µM was 28.2 ± 15%.
